According to PubChem BioAssay (NCI):
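Each compound was tested at five concentrations against cells in 96-well plates for 48 hours. GI50: concentration for 50% inhibition of growth. TGI marks complete inhibition of growth.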

Key:
Experiment in all cases: NCI anticancer screen, dose series, 48 h
786-0 renal = system: 786-0 renal
A498 renal = system: A498 renal
A549 NSCLC = system: A549 NSCLC
ACHN renal = system: ACHN renal
BT-549 breast = system: BT-549 breast
CCRF-CEM leukemia = system: CCRF-CEM leukemia
COLO 205 colon = system: COLO 205 colon
DU-145 prostate = system: DU-145 prostate
EKVX NSCLC = system: EKVX NSCLC
HCC-2998 colon = system: HCC-2998 colon
HCT-116 colon = system: HCT-116 colon
HCT-15 colon = system: HCT-15 colon
HL-60(TB) leukemia = system: HL-60(TB) leukemia
HOP-62 NSCLC = system: HOP-62 NSCLC
HOP-92 NSCLC = system: HOP-92 NSCLC
HS 578T breast = system: HS 578T breast
IGROV1 ovarian = system: IGROV1 ovarian
K-562 leukemia = system: K-562 leukemia
KM12 colon = system: KM12 colon
LOX IMVI melanoma = system: LOX IMVI melanoma
M14 melanoma = system: M14 melanoma
MALME-3M melanoma = system: MALME-3M melanoma
MCF7 breast = system: MCF7 breast
MDA-MB-231 breast = system: MDA-MB-231 breast
MDA-MB-435 = system: MDA-MB-435
MDA-MB-468 breast = system: MDA-MB-468 breast
MOLT-4 leukemia = system: MOLT-4 leukemia
NCI-H226 lung = system: NCI-H226 lung
NCI-H23 lung = system: NCI-H23 lung
NCI-H460 lung = system: NCI-H460 lung
OVCAR-4 ovarian = system: OVCAR-4 ovarian
OVCAR-5 ovarian = system: OVCAR-5 ovarian
OVCAR-8 ovarian = system: OVCAR-8 ovarian
PC-3 prostate = system: PC-3 prostate
RPMI-8226 leukemia = system: RPMI-8226 leukemia
RXF 393 renal = system: RXF 393 renal
SF-268 CNS = system: SF-268 CNS
SF-295 CNS = system: SF-295 CNS
SF-539 CNS = system: SF-539 CNS
SK-MEL-2 melanoma = system: SK-MEL-2 melanoma
SK-MEL-28 melanoma = system: SK-MEL-28 melanoma
SK-MEL-5 melanoma = system: SK-MEL-5 melanoma
SK-OV-3 ovarian = system: SK-OV-3 ovarian
SN12C renal = system: SN12C renal
SNB-19 CNS = system: SNB-19 CNS
SNB-75 CNS = system: SNB-75 CNS
SR leukemia = system: SR leukemia
T-47D breast = system: T-47D breast
TK-10 renal = system: TK-10 renal
U251 CNS = system: U251 CNS
UACC-257 melanoma = system: UACC-257 melanoma
UACC-62 melanoma = system: UACC-62 melanoma
UO-31 renal = system: UO-31 renal

## CSc1ccc(C(=O)Nc2ccc3nn(/C(C#N)=C/c4ccccn4)nc3c2)cc1
786-0 renal
  GI50: 776 nM
  TGI: 1500 nM
A498 renal
  GI50: 5570 nM
  TGI: 11900 nM
A549 NSCLC
  GI50: 2200 nM
  TGI: 11000 nM
ACHN renal
  GI50: 808 nM
  TGI: 1600 nM
BT-549 breast
  GI50: 920 nM
  TGI: 1950 nM
CCRF-CEM leukemia
  GI50: 619 nM
  TGI: 50000 nM
COLO 205 colon
  GI50: 834 nM
  TGI: 1590 nM
DU-145 prostate
  GI50: 1250 nM
  TGI: 3850 nM
EKVX NSCLC
  GI50: 1260 nM
  TGI: 5950 nM
HCC-2998 colon
  GI50: 854 nM
  TGI: 1580 nM
HCT-116 colon
  GI50: 822 nM
  TGI: 1640 nM
HCT-15 colon
  GI50: 511 nM
  TGI: 1380 nM
HL-60(TB) leukemia
  GI50: 544 nM
  TGI: 2190 nM
HOP-62 NSCLC
  GI50: 1750 nM
  TGI: 6640 nM
HOP-92 NSCLC
  GI50: 677 nM
  TGI: 1930 nM
HS 578T breast
  GI50: 1700 nM
  TGI: 12600 nM
IGROV1 ovarian
  GI50: 902 nM
  TGI: 1980 nM
K-562 leukemia
  GI50: 424 nM
  TGI: 3300 nM
KM12 colon
  GI50: 1060 nM
  TGI: 3080 nM
LOX IMVI melanoma
  GI50: 664 nM
  TGI: 1340 nM
M14 melanoma
  GI50: 866 nM
  TGI: 1880 nM
MALME-3M melanoma
  GI50: 797 nM
  TGI: 1960 nM
MCF7 breast
  GI50: 687 nM
  TGI: 1650 nM
MDA-MB-231 breast
  GI50: 842 nM
  TGI: 1740 nM
MDA-MB-435
  GI50: 759 nM
  TGI: 2560 nM
MDA-MB-468 breast
  GI50: 558 nM
  TGI: 1360 nM
MOLT-4 leukemia
  GI50: 658 nM
  TGI: 2270 nM
NCI-H226 lung
  GI50: 1640 nM
  TGI: 9690 nM
NCI-H23 lung
  GI50: 769 nM
  TGI: 1540 nM
NCI-H460 lung
  GI50: 934 nM
  TGI: 2110 nM
OVCAR-4 ovarian
  GI50: 1740 nM
  TGI: 9640 nM
OVCAR-5 ovarian
  GI50: 990 nM
  TGI: 2510 nM
OVCAR-8 ovarian
  GI50: 1480 nM
  TGI: 14200 nM
PC-3 prostate
  GI50: 1510 nM
  TGI: 6330 nM
RPMI-8226 leukemia
  GI50: 901 nM
  TGI: 2970 nM
RXF 393 renal
  GI50: 699 nM
  TGI: 1360 nM
SF-268 CNS
  GI50: 1780 nM
  TGI: 8870 nM
SF-295 CNS
  GI50: 2360 nM
  TGI: 9150 nM
SF-539 CNS
  GI50: 811 nM
  TGI: 1530 nM
SK-MEL-2 melanoma
  GI50: 896 nM
  TGI: 1900 nM
SK-MEL-28 melanoma
  GI50: 885 nM
  TGI: 1820 nM
SK-MEL-5 melanoma
  GI50: 1390 nM
  TGI: 4700 nM
SK-OV-3 ovarian
  GI50: 5180 nM
  TGI: 17500 nM
SN12C renal
  GI50: 1140 nM
  TGI: 2840 nM
SNB-19 CNS
  GI50: 2140 nM
  TGI: 8790 nM
SNB-75 CNS
  GI50: 948 nM
  TGI: 8250 nM
SR leukemia
  GI50: 327 nM
  TGI: 4180 nM
T-47D breast
  GI50: 1270 nM
  TGI: 10900 nM
TK-10 renal
  GI50: 935 nM
  TGI: 2200 nM
U251 CNS
  GI50: 903 nM
  TGI: 1890 nM
UACC-257 melanoma
  GI50: 1280 nM
  TGI: 4190 nM
UACC-62 melanoma
  GI50: 819 nM
  TGI: 1720 nM
UO-31 renal
  GI50: 712 nM
  TGI: 1390 nM
